The values below come from US20200339537A1, “NOVEL COMPOUND AS INHIBITOR AGAINST BINDING OF PF34 PROTEIN TO NEDD4-1 PROTEIN AND USE THEREOF” (ENHANCEDBIO INC., priority 2017, published 2020).

Molecules are shown by their SMILES.

The target in the first experiment is T1, binding between p34 protein and NEDD4-1 protein (Homo sapiens, UniProt P46934+Q9UHV2).
T1 construct: FLAG or 6xHis (known only from the detection antibodies)
T1 sequence (P46934 1-1319): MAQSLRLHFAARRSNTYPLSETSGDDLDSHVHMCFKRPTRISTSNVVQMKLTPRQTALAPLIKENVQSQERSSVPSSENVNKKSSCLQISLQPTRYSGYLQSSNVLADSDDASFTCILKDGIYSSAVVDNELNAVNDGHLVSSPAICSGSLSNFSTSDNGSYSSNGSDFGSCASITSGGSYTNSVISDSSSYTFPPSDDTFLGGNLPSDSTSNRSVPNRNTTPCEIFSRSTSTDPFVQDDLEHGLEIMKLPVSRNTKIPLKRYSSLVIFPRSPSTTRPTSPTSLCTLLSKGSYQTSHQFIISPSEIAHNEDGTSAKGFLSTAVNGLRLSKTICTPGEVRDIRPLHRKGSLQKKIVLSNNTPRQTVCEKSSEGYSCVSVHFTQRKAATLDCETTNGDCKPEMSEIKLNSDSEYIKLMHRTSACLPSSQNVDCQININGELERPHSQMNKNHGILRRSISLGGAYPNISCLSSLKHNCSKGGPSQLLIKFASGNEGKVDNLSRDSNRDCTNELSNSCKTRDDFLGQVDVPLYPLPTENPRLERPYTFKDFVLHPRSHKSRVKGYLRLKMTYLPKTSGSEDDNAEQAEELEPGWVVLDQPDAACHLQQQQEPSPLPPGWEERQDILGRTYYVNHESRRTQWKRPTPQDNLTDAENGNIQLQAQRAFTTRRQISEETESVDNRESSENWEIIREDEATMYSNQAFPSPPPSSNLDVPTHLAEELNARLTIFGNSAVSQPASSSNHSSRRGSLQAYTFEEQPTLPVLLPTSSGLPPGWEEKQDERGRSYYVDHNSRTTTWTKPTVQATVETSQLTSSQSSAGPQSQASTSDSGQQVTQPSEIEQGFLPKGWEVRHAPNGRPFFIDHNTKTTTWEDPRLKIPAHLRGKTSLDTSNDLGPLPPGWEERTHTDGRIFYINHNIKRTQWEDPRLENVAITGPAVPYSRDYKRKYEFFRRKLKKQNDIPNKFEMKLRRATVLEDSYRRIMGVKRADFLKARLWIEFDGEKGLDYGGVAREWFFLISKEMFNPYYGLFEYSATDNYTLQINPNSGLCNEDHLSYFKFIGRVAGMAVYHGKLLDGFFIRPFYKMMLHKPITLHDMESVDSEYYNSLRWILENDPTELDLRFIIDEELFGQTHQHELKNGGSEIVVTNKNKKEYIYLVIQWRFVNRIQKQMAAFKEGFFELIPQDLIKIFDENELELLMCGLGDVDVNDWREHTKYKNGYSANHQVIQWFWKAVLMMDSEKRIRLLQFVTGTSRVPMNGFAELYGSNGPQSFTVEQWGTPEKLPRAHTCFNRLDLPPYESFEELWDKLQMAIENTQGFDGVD
T1 sequence (Q9UHV2 1-236): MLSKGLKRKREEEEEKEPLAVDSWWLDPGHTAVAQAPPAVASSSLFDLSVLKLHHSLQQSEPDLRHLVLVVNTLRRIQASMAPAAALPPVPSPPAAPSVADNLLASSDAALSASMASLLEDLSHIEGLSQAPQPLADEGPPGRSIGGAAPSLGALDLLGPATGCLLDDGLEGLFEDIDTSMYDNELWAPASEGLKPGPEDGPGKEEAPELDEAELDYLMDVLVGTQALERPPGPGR
The experiment in a line: Inhibitory activity on binding between p34 and NEDD4-1, FRET (HTRF) assay. The conditions noted are these: compound 10 μM; 1×PBS pH 7.4, 0.1% BSA, 2% DMSO; 384-well; 10 µM. The procedure:
Inhibitory activity of the compound on binding between p34 and NEDD4-1 was evaluated using p34 protein and NEDD4-1 protein based on the HTRF technology developed by Cisbio. In this assay, a fluorescence resonance energy transfer (FRET) signal was measured in the presence of terbium-labeled anti-FLAG antibody and d2-labeled anti-6XHis antibody. Experiments were performed in 384-well plates under a condition of 1×PBS pH 7.4, 0.1% BSA, and 2% DMSO. A background signal was measured in the absence of the p34-NEDD4-1 proteins, and a non-inhibiting signal was measured with addition of only a solvent (2% DMSO). […] Subsequently, inhibitory activity of the compound on p34-NEDD4-1 was calculated in %.
A general note: Time-resolved FRET reads energy transfer from a long-lived donor to a nearby acceptor.
With `O=C(NCc1nc2ccccc2[nH]1)C1CCN(Cc2c[nH]c3ccc(C(F)(F)F)cc23)CC1` [Example 8], the “FRET result (Inhibition % @10 μM)” value came to 49.4%.

The same experiment, now with this note: pH 7.4, compound 10 μM; 1×PBS pH 7.4, 0.1% BSA, 2% DMSO; 384-well.
The inhibition is the change of the read-out against control, counted positive when it falls. `CC(NC(=O)N1CCN(Cc2c[nH]c3ccc(Cl)cc23)CC1)c1nc2ccccc2[nH]1` (centres unmarked) [Example 65] returned an inhibition at 10 µM of 53.1%. Still for that read-out and setting: the result for `O=C(NCc1nc2cc(Cl)ccc2[nH]1)C1CCN(Cc2c[nH]c3ccc(Cl)cc23)CC1` [Example 4] reads 30.6%.

On to `O=C(NCc1nccs1)N1CCN(Cc2n[nH]c3ccccc23)CC1` [Example 79], for which at 10 µM the inhibition was 54.4%. Still for that read-out and setting: the result for `O=C(NCc1ncc[nH]1)C1CCN(Cc2ccc3[nH]ccc3c2)CC1` [Example 15] reads 60.4%; that for `CCC(NC(=O)C1CCN(Cc2c[nH]c3ccc(Cl)cc23)CC1)c1nc2ccccc2[nH]1` (centres unmarked) [Example 7], 59%.

The compound `O=C(Nc1ccccn1)N1CCN(Cc2ccc3[nH]ccc3c2)CC1` [Example 72] gave an inhibition at 10 µM of 55.5%. Same read-out and setting: the result for `O=C(NCc1nc2ccccc2o1)C1CCN(Cc2ccc3[nH]ccc3c2)CC1` [Example 18] reads 30%; that for `O=C(NCc1nccs1)N1CCN(Cc2ccc3cc[nH]c3c2)CC1` [Example 82], 47.2%; that for `CCC(NC(=O)C1CCN(Cc2c[nH]c3ccc(C(F)(F)F)cc23)CC1)c1nc2ccccc2[nH]1` (centres unmarked) [Example 35], 45.5%. `O=C(NCc1cncs1)N1CCN(Cc2ccc3[nH]ccc3c2)CC1` [Example 84] came in with an inhibition at 10 µM of 44.1%. Same read-out and setting: the result for `O=C(NC(Cc1ccccc1)c1nc2ccccc2[nH]1)C1CCN(Cc2ccc3[nH]ccc3c2)CC1` (centres unmarked) [Example 21] reads 56.6%; that for `O=C(NCc1nc2ccccc2[nH]1)N1CCN(Cc2c[nH]c3ccc(Cl)cc23)CC1` [Example 75], 52.4%; that for `Cn1c(CNC(=O)C2CCN(Cc3c[nH]c4ccccc34)CC2)nc2ccccc21` [Example 46], 42.9%. On to `Cn1cc(CN2CCC(C(=O)NCc3nc4ccccc4[nH]3)CC2)c2cc(F)ccc21` [Example 51], for which the inhibition at 10 µM is 56.2%.

Consider `Cc1ccc2nc(C(C)NC(=O)C3CCN(Cc4c[nH]c5ccc(Cl)cc45)CC3)[nH]c2c1` (centres unmarked) [Example 2], for which the inhibition at 10 µM is 42.4%.

The compound `O=C(NCc1cnccn1)C1CCN(Cc2c[nH]c3ccc(Cl)cc23)CC1` [Example 10] gave an inhibition at 10 µM of 39%. On to `CN(Cc1nc2ccccc2[nH]1)C(=O)C1CCN(Cc2c[nH]c3ccccc23)CC1` [Example 52], for which at 10 µM the inhibition was 32.4%. The same measure, in the same setting: the result for `O=C(NCc1cnccn1)C1CCN(Cc2c[nH]c3ccc(C(F)(F)F)cc23)CC1` [Example 38] reads 36.6%; that for `O=C(NCc1nccs1)C1CCN(C(=O)c2ccc3[nH]ccc3c2)CC1` [Example 28], 34.5%.

For the compound `Cn1c(CNC(=O)C2CCN(Cc3c[nH]c4ccc(C(F)(F)F)cc34)CC2)nc2ccccc21` [Example 40], the inhibition at 10 µM worked out at 42.8%.

Turning to `O=C(NCc1nccs1)C1CCN(Cc2ccc3[nH]ccc3c2)CC1` [Example 12], the inhibition at 10 µM amounted to 39.2%. On the same count and under the same terms, the result for `O=C(NCc1nc2ccccc2[nH]1)C1CCN(Cc2c[nH]cn2)CC1` [Example 22] reads 48.1%.

In turn, `O=C(NCc1nc2ccccc2[nH]1)C1CCN(Cc2c[nH]c3cc(F)c(F)cc23)CC1` [Example 60] gave an inhibition at 10 µM of 38.4%.

The compound `O=C(NCc1nc2ccccc2[nH]1)C1CCN(Cc2c[nH]c3ccc(F)cc23)CC1` [Example 47] showed an inhibition at 10 µM of 30.5%. `O=C(NCc1nc2ccccc2[nH]1)C1CCN(Cc2ccc3[nH]ccc3c2)CC1` [Example 23] came in with an inhibition at 10 µM of 38.2%. Still for that read-out and setting: the result for `O=C(NCc1ncc[nH]1)C1CCN(Cc2c[nH]c3ccc(Cl)cc23)CC1` [Example 9] reads 58.4%.

As for `Cn1c(CNC(=O)N2CCN(Cc3c[nH]c4ccc(Cl)cc34)CC2)nc2ccccc21` [Example 63], the inhibition at 10 µM is 52.3%. In turn, `Cc1ccc2nc(C(C)NC(=O)C3CCN(Cc4c[nH]c5ccccc45)CC3)[nH]c2c1` (centres unmarked) [Example 56] displayed an inhibition at 10 µM of 56.2%. In the case of `O=C(NCc1nccs1)C1CCN(Cc2c[nH]c3ccc(Cl)cc23)CC1` [Example 11], testing at 10 µM gave an inhibition of 39.1%. For `O=C(NCc1cnccn1)C1CCN(Cc2ccc3[nH]ccc3c2)CC1` [Example 26], at 10 µM the inhibition was 42%.

As to `O=C(NCc1nc2ccccc2[nH]1)C1CCN(Cc2c[nH]c3ccc(C(F)(F)F)cc23)CC1` [Example 41], 10 µM produced 42.8% inhibition. The same measure, in the same setting: the result for `CCC(NC(=O)C1CCN(Cc2ccc3[nH]ccc3c2)CC1)c1nc2ccccc2[nH]1` (centres unmarked) [Example 24] reads 53%.

A further experiment deals with PTEN (lipid phosphatase activity) in human colon cancer cell line SW620. The experiment in a line: cells. Format: cell-based. To be noted: Homo sapiens, SW-620, 48 h, compound 5 μM, PTEN immunoprecipitation, diC8-PIP3 substrate, Biomol Green, read-out: PTEN activity (relative fold @5 μM).
On to `O=C(NCc1nc2cc(Cl)ccc2[nH]1)C1CCN(Cc2c[nH]c3ccc(Cl)cc23)CC1` [Example 4], for which the fold induction at 5 µM came to 1.8.

Take `O=C(NCc1nccs1)N1CCN(Cc2n[nH]c3ccccc23)CC1` [Example 79]: the fold induction at 5 µM turned out to be 2.2. For the compound `O=C(Nc1ccccn1)N1CCN(Cc2ccc3[nH]ccc3c2)CC1` [Example 72], the fold induction at 5 µM was found to be 1.9. On the same count and under the same terms, the result for `CC(NC(=O)C1CCN(Cc2c[nH]c3ccccc23)CC1)c1nc2ccccc2[nH]1` (centres unmarked) [Example 49] reads 1.9; that for `O=C(NCc1nc2ccccc2o1)C1CCN(Cc2ccc3[nH]ccc3c2)CC1` [Example 18], 2; that for `O=C(NCc1nccs1)N1CCN(Cc2ccc3cc[nH]c3c2)CC1` [Example 82], 1.7.

For `CCC(NC(=O)C1CCN(Cc2c[nH]c3ccc(C(F)(F)F)cc23)CC1)c1nc2ccccc2[nH]1` (centres unmarked) [Example 35], the fold induction at 5 µM stood at 1.5. On the same count and under the same terms, the result for `CC(NC(=O)C1CCN(Cc2c[nH]c3ccc(F)cc23)CC1)c1nc2ccccc2[nH]1` (centres unmarked) [Example 50] reads 2.6; that for `O=C(NCc1cncs1)N1CCN(Cc2ccc3[nH]ccc3c2)CC1` [Example 84], 2.9; that for `Cn1c(CNC(=O)C2CCN(Cc3ccc4[nH]ccc4c3)CC2)nc2ccccc21` [Example 27], 1.8.

Turning to `Cc1cc2nc(CNC(=O)C3CCN(Cc4c[nH]c5ccc(Cl)cc45)CC3)[nH]c2cc1C` [Example 3], the fold induction at 5 µM was 1.5. In the case of `CN(Cc1nc2ccccc2n1C)C(=O)N1CCN(Cc2c[nH]c3ccc(Cl)cc23)CC1` [Example 69], the fold induction at 5 µM stood at 1.6. Still for that read-out and setting: the result for `O=C(NCc1nccs1)N1CCN(Cc2c[nH]c3ccc(Cl)cc23)CC1` [Example 76] reads 1.7; that for `O=C(NCc1cncs1)C1CN(Cc2c[nH]c3ccc(C(F)(F)F)cc23)C1` [Example 36], 1.7.

In the case of `O=C(NCc1nc2cc(F)c(F)cc2[nH]1)C1CCN(Cc2c[nH]c3ccc(F)cc23)CC1` [Example 48], the fold induction at 5 µM was 1.6. The same measure, in the same setting: the result for `Cn1cc(CN2CCC(C(=O)NCc3nc4ccccc4[nH]3)CC2)c2ccccc21` [Example 59] reads 2. Still for that read-out and setting: the result for `CC(NC(=O)C1CCN(Cc2c[nH]c3ccc(Cl)cc23)CC1)c1nc2ccccc2[nH]1` (centres unmarked) [Example 5] reads 1.5; that for `Cc1[nH]c2ccc(CN3CCN(C(=O)NCc4nccs4)CC3)cc2c1C` [Example 88], 2.2. For `O=C(NCc1nc2cc(F)c(F)cc2[nH]1)C1CCN(Cc2c[nH]c3ccccc23)CC1` [Example 53], the fold induction at 5 µM is 1.8.

Staying with this experiment, now noted: compound 5 μM, 48 hours, PTEN immunoprecipitation, diC8-PIP3 substrate, Biomol Green.
Consider `CN(Cc1nc2ccccc2n1C)C(=O)N1CCN(Cc2c[nH]c3ccc(Cl)cc23)CC1` [Example 70], for which the “PTEN activity (relative fold @5 μM)” value came to 2.1 fold.
